This note sets out measurements from PubChem BioAssay (NCI).

Each structure is given as a SMILES string. Several values for one entry are separate records, joined by “and”; a condition that tells them apart may be missing. Equal entries are not always repeated.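 Grown in 96-well plates, cells were treated for 48 hours with each compound at five concentrations. Insufficient inhibition: endpoint recorded as highest concentration tested. Here, GI50 denotes the concentration required for 50% inhibition of growth. The concentration for full growth arrest is given as TGI.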

Common to all, as to test: inhibition of tumour cell growth, NCI panel, 48 h
The test system of assay [1] is UACC-257 melanoma.
Assay [2] has as its system HCC-2998 colon.
Assay [3] deals with OVCAR-5 ovarian.
For assay [4], the system named is OVCAR-3 ovarian.
The subject of assay [5] is NCI-H460 lung.
For assay [6], the system named is SK-MEL-2 melanoma.
The test system of assay [7] is RXF 393 renal.
In assay [8] the test system is OVCAR-4 ovarian.
The subject of assay [9] is SK-MEL-28 melanoma.
In assay [10] the test system is ACHN renal.

Take `O=c1cc(CNC2CCCC2)[nH]c(=O)[nH]1`: the TGI in [1], in assay [2], in assay [3], in assay [4], in assay [5] and in assay [6] was > 100 µM each time. For the same compound, the TGI in assay [7], in assay [8], in assay [9] and in assay [10] was > 100 µM each time.

For the compound `C=C(C)[C@@]1(O)O[C@H]2C[C@@]3(C)OC(=CC3=O)/C(C)=C\[C@@H]3OC(=O)[C@@]1(C)[C@H]32`, the TGI in assay [1] was > 63.5 µM; in assay [2] it was 35.1 µM; in [3], 19.7 µM; in [4] it was 34.2 µM; in [5] it was > 76.8 µM; in [6], > 56.3 µM. Also, the TGI in [7] was 26.8 µM; in assay [8] it was > 100 µM; in [9] it was 30.4 µM; in assay [10] it was > 77.1 µM.

With `C=CCNC(=S)Nc1sc2c(c1C(=O)OCC)CC(C)CC2` (stereo not given), the TGI in assay [1] worked out at 43.5 µM; in assay [2], 44.1 µM; in assay [3] it was 76 µM; in assay [4] it was 50.1 µM; in assay [5], 47.7 µM; in assay [6], 48.4 µM. Moreover, the TGI in [7] was 83.9 µM; in [8], > 100 µM; in assay [9], > 100 µM; in [10] it was 53.6 µM.

For the compound `Clc1ccc2c(SCC3CO3)c3ccccc3nc2c1` (stereo not given), the TGI was found to be 9.3 µM in assay [1]; 9.55 µM in assay [2]; 10.4 µM in [3]; 3.27 µM in assay [4]; 20.9 µM in assay [5]; 8.11 µM in assay [6]. Moreover, the TGI stood at 8.08 µM in assay [7], 21.1 µM in assay [8], 21.1 µM in assay [9] and 4.55 µM in assay [10].

For the compound `C=C(C)[C@@H]1CC[C@]2(C(=O)O)CC[C@]3(C)[C@H](CC[C@@H]4[C@@]5(C)CC(=O)C(C)(C)[C@@H]5CC[C@]43C)[C@@H]12`, the TGI is 22.3 µM in assay [1]; 12 µM in [2]; > 25 µM in assay [3]; 21.4 µM in [4]; 10.7 µM in [5]; 9.71 µM in assay [6]. Also, the TGI in [7], in [8], in assay [9] and in [10] was > 25 µM in each case.

As to `CN1C/C(=C\c2cccs2)C2=NC(=S)NC(c3cccs3)C2C1` (stereo not given), the TGI in assay [1], in [2], in assay [3], in assay [4], in [5] and in assay [6] was > 100 µM in each case. Further, the TGI in assay [7], in [8], in [9] and in assay [10] was > 100 µM in each case.

Take `O=C(c1ccccc1)c1ccc2c(c1)nc1n2C(c2c(Cl)cccc2Cl)SC1` (stereo not given): the TGI in [1], in [2], in assay [3], in assay [4], in assay [5] and in [6] was > 100 µM each time. In addition, the TGI in assay [7], in [8], in assay [9] and in assay [10] was > 100 µM throughout.

As to `COc1ccc2oc(=N)c(C(=O)Nc3cccc4ccccc34)cc2c1`, the TGI in assay [1] was > 100 µM; in [2], > 100 µM; in assay [3] it was > 100 µM; in [4] it was 30.8 µM; in assay [5], > 100 µM; in [6] it was 85.7 µM. The TGI in assay [7] is 20 µM; in assay [8] it was 40.3 µM; in assay [9], > 100 µM; in [10], > 100 µM.

Take `COC(=O)N1CC2(CO)C3CC=C(C(=O)Nc4ccccc4Br)C2C1C3Br` (stereo not given): the TGI in [1], in assay [2], in assay [3], in assay [4], in [5] and in [6] was > 50 µM each time. Moreover, the TGI in assay [7], in [8], in assay [9] and in assay [10] was > 50 µM in each case.

Take `CC1=NN(c2nc(N)nc(-c3ccccc3S(N)(=O)=O)n2)C(C)(C)C1`: the TGI in [1] is > 100 µM; in [2], > 100 µM; in [3], > 100 µM; in assay [4] it was > 100 µM; in assay [5], > 100 µM; in [6], 57 µM. In addition, the TGI is > 100 µM in [7], > 100 µM in assay [8], > 100 µM in assay [9] and 82.1 µM in assay [10].

Turning to `O=C1c2c(F)c(F)c(F)c(F)c2SC2=NCCN12`, the TGI is 21.8 µM in assay [1]; 28 µM in assay [2]; 29.2 µM in [3]; 9.21 µM in [4]; 17.5 µM in assay [5]; 6.52 µM in assay [6]. For the same compound, the TGI came out at 8.89 µM in [7], 8.91 µM in assay [8], 22.8 µM in assay [9] and 21.1 µM in [10].

With `O=c1[nH]c(=O)n(C2CC(O)C(CO)O2)cc1I` (stereo not given), the TGI in [1], in assay [2], in assay [3], in assay [4], in assay [5] and in [6] was > 100 µM throughout. Besides, the TGI in [7], in assay [8], in assay [9] and in assay [10] was > 100 µM throughout.

On to `CCOC(=O)c1ccc(N=NN(C)C(=O)C(C)N)cc1` (stereo not given), for which the TGI in assay [1], in assay [2], in assay [3], in [4], in assay [5] and in assay [6] was > 100 µM throughout. Besides, the TGI in [7], in [8], in assay [9] and in assay [10] was > 100 µM in each case.

For `O=C(O)c1ccccc1.[Ag]`, the TGI amounted to 10.2 µM in assay [1]; 37 µM in assay [2]; 45.1 µM in [3]; 28.5 µM in assay [4]; 30.1 µM in [5]; 30.2 µM in assay [6]. Further, the TGI in [7] stood at 35.9 µM; in assay [8], 29.9 µM; in assay [9], 32.4 µM; in assay [10], 19.1 µM.

On to `CCOC(=O)c1cn(-c2ccccc2)c(=S)n2c1nc1ccccc12`, for which the TGI was > 100 µM in [1]; 96.9 µM in [2]; > 100 µM in assay [3]; > 100 µM in assay [4]; > 100 µM in assay [5]; > 100 µM in assay [6]. Further, the TGI was > 100 µM in assay [7], > 100 µM in assay [8], > 73.4 µM in assay [9] and > 100 µM in assay [10].

As to `C=CCC1(O)c2ccccc2C(=O)c2c(O)ccc(O)c21` (stereo not given), the TGI is 19 µM in assay [1]; 15 µM in [2]; 60.4 µM in assay [3]; > 57.6 µM in assay [4]; 18.3 µM in assay [5]; 9.98 µM in assay [6]. Further, the TGI in assay [7] is 21.4 µM; in assay [8] it was > 82.5 µM; in [9], > 100 µM; in assay [10], 46.3 µM.

On to `COc1cc(/C=C/C(=O)OCC23CC[C@@]4(C(=O)O)CCC(C)[C@H](C)C4C2=CCC2[C@@]4(C)CC[C@H](O)C(C)(C)C4CC[C@]23C)ccc1O` (stereo not given in full), for which the TGI in assay [1] was 39.4 µM; in assay [2], > 100 µM; in [3] it was 46.4 µM; in [4], 14.3 µM; in assay [5], 27.6 µM; in assay [6], 47.5 µM. Moreover, the TGI in assay [7] amounted to 47.4 µM; in assay [8], 46.9 µM; in assay [9], 85.9 µM; in assay [10] it was 8.24 µM.

Consider `CC[n+]1cnc(N)c2c(-c3ccc(Cl)cc3)cn(-c3ccc(C)cc3)c21`, for which the TGI was 6.06 µM in [1]; 14.8 µM in assay [2]; 29.7 µM in assay [3]; 21.6 µM in assay [4]; 35.8 µM in [5]; 36 µM in [6]. The TGI in assay [7] was determined as 18.2 µM; in [8], 15.6 µM; in [9] it was 21.2 µM; in [10], 25.6 µM.

In the case of `S=c1sc2c(Cl)ncnc2n1-c1ccccc1`, the TGI is 33.6 µM in [1]; 31.1 µM in assay [2]; 53.8 µM in assay [3]; 28.9 µM in assay [4]; 32.6 µM in assay [5]; 21.3 µM in assay [6]. Moreover, the TGI was 28.9 µM in assay [7], 33.6 µM in assay [8], 23.6 µM in assay [9] and 30 µM in [10].

As for `C=C1C(=O)OC2/C=C(\C)C(OC(C)=O)C3OC3C(C)(O)CC(OC(=O)/C(C)=C/C)C12` (stereo not given), the TGI in assay [1] was found to be 28.8 µM; in [2] it was 21.3 µM; in [3] it was 32.3 µM; in assay [4] it was 15.8 µM; in [5], 29.1 µM; in assay [6] it was 20.6 µM. In addition, the TGI in [7] was determined as 19.3 µM; in [8] it was 62.2 µM; in assay [9], 16.2 µM; in [10] it was 31.7 µM.

For the compound `O=C(CSCC(=O)N/N=C/c1cc(I)cc(I)c1O)N/N=C/c1cc(I)cc(I)c1O`, the TGI in assay [1] was > 100 µM; in assay [2], 38.1 µM; in [3] it was 82.5 µM; in assay [4], > 100 µM; in assay [5], 82 µM; in assay [6], 47.4 µM. In addition, the TGI in [7] was 24.5 µM; in [8] it was > 100 µM; in assay [9] it was > 100 µM; in assay [10], 32.2 µM.

Turning to `O=C1c2ccccc2C2CNC1(O)c1ccccc12` (stereo not given), the TGI in assay [1], in assay [2], in assay [3], in assay [4], in assay [5] and in [6] was > 100 µM each time. The TGI in [7], in assay [8], in assay [9] and in [10] was > 100 µM in each case.

Regarding `c1ccc(CNC2CC(NCc3ccccn3)CC(NCc3ccccn3)C2)nc1` (stereo not given), the TGI is 21.4 µM and 9.81 µM in [1]; 3.72 µM in [2]; 14.4 µM and 25 µM and 8.94 µM in assay [3]; 9.72 µM and 12.1 µM and 15.9 µM in assay [4]; 7.07 µM and 12 µM in assay [5]; 6.86 µM and 11.5 µM and 12.2 µM in [6]. Further, the TGI was 4.11 µM and 9.03 µM and 3.83 µM in [7]; 9.26 µM and 8.37 µM and 40.9 µM in assay [8]; 18.5 µM and 13.3 µM and 26.4 µM in assay [9]; 47.3 µM and 25 µM and 35.7 µM in assay [10]. Moreover, the GI50 in [3] was 3.66 µM and 14.4 µM and 2.89 µM; in assay [4], 4.59 µM; in assay [6] it was 3.4 µM; in [7] it was 1.98 µM and 4.41 µM; in assay [9], 7.71 µM.
